Data reported in the kinase profiling compilation of Christmann-Franck et al. (2016).
“And” between values parts separate entries of the source, which are not always exact repeats. Equal values may be shown once.

Legend:
Experiment in all cases: radiometric filter-binding kinase assay, Kinase HotSpot
[1] = target: WEE1 (human) (UniProt P30291); conditions: compound 0.5 µM; ATP 10 µM
[2] = target: TTK (human) (UniProt P33981); conditions: compound 0.5 µM; ATP 10 µM
[3] = target: CAMKK2 (human) (UniProt Q96RR4); conditions: compound 0.5 µM; ATP 10 µM
Sequence of CAMKK2 (human) (Q96RR4 whole entry, looked up): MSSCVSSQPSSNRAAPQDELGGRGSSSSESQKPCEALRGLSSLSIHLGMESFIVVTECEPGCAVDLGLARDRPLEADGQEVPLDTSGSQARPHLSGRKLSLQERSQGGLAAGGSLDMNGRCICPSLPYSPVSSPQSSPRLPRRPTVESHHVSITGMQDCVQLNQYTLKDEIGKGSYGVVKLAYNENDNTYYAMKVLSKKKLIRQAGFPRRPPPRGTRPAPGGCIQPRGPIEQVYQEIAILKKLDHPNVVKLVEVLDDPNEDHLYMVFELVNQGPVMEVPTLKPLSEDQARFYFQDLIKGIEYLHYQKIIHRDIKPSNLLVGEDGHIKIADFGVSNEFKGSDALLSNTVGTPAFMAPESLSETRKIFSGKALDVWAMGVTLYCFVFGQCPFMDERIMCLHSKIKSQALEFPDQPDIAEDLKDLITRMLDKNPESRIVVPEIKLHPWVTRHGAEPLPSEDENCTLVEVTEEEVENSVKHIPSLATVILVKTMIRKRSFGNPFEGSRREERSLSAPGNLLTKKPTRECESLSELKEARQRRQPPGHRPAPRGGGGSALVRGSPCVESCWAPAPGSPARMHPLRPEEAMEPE

[4] = target: FLT1 (human) (UniProt P17948); conditions: compound 0.5 µM; ATP 10 µM
[5] = target: EPHB1 (human) (UniProt P54762); conditions: compound 0.5 µM; ATP 10 µM
[6] = target: PHKG2 (human) (UniProt P15735); conditions: compound 0.5 µM; ATP 10 µM
[7] = target: AKT1 (human) (UniProt P31749); conditions: compound 0.5 µM; ATP 10 µM
[8] = target: WNK2 (human) (UniProt Q9Y3S1); conditions: compound 0.5 µM; ATP 10 µM
[9] = target: ABL1 (human) (UniProt P00519); conditions: compound 0.5 µM; ATP 10 µM
Sequence of ABL1 (human) (P00519 whole entry, looked up): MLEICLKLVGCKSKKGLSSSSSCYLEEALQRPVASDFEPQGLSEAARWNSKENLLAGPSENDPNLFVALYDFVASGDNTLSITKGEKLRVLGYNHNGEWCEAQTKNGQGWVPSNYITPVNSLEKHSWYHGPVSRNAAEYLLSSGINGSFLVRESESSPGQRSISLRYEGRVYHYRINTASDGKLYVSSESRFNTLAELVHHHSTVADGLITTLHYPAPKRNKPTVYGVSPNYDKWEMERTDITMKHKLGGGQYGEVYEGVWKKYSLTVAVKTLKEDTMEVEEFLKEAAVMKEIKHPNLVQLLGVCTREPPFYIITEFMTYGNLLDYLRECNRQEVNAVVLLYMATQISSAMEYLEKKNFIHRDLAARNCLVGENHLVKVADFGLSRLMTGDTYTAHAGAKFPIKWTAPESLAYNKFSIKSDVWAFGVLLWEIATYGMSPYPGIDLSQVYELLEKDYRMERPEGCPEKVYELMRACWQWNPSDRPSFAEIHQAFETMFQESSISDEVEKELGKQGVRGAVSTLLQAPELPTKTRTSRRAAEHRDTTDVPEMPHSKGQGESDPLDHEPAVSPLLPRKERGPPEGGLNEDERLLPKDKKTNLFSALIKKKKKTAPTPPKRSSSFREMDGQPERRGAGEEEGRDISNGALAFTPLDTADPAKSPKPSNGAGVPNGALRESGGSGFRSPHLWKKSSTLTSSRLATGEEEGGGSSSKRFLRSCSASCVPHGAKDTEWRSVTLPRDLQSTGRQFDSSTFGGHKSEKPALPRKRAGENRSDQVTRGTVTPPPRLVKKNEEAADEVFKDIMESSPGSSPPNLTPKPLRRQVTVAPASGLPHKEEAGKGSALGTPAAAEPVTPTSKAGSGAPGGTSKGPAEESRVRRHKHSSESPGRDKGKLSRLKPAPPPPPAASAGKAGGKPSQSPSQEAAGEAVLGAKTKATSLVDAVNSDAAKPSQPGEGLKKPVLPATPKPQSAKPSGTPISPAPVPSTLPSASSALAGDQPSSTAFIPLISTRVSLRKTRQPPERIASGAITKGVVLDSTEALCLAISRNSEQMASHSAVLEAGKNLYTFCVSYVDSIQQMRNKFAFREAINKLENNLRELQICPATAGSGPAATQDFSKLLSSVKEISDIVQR

[10] = target: FGFR2 (human) (UniProt P21802); conditions: compound 0.5 µM; ATP 10 µM
[11] = target: STK16 (human) (UniProt O75716); conditions: compound 0.5 µM; ATP 10 µM
Sequence of STK16 (human) (O75716 whole entry, looked up): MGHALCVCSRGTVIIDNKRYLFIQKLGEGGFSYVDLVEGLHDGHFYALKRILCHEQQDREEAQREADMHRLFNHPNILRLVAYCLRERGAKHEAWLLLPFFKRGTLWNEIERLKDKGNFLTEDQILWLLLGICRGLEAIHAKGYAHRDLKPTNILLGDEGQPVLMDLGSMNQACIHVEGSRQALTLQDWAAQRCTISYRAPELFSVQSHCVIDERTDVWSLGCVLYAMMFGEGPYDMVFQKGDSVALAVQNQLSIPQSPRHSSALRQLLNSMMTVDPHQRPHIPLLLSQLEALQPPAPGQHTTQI

[12] = target: CDC42BPA (human) (UniProt Q5VT25); conditions: compound 0.5 µM; ATP 10 µM
[13] = target: JAK1 JH1 catalytic (human) (UniProt P23458); conditions: compound 0.5 µM; ATP 10 µM
[14] = target: DMPK (human) (UniProt Q09013); conditions: compound 0.5 µM; ATP 10 µM
[15] = target: CAMK1G (human) (UniProt Q96NX5); conditions: compound 0.5 µM; ATP 10 µM
[16] = target: PRKG1 (human) (UniProt Q13976); conditions: compound 0.5 µM; ATP 10 µM
Sequence of PRKG1 (human) (Q13976 whole entry, looked up): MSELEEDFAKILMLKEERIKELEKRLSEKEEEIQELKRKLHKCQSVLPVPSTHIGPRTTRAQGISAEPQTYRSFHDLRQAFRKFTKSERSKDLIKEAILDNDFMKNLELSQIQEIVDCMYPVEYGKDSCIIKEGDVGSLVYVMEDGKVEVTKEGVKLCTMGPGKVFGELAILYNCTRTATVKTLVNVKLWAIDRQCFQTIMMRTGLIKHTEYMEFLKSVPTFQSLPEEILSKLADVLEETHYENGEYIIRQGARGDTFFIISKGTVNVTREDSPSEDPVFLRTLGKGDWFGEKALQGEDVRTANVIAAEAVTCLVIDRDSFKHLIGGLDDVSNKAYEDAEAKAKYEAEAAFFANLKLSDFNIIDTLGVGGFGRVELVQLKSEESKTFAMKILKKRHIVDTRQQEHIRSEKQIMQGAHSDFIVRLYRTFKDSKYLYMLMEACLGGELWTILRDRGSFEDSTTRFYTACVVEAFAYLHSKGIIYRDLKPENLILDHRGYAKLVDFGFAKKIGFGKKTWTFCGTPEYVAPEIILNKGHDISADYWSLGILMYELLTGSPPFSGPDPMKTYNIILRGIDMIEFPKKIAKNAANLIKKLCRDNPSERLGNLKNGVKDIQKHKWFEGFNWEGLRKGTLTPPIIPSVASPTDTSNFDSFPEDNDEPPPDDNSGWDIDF

[17] = target: BRSK2 (human) (UniProt Q8IWQ3); conditions: compound 0.5 µM; ATP 10 µM
Sequence of BRSK2 (human) (Q8IWQ3 whole entry, looked up): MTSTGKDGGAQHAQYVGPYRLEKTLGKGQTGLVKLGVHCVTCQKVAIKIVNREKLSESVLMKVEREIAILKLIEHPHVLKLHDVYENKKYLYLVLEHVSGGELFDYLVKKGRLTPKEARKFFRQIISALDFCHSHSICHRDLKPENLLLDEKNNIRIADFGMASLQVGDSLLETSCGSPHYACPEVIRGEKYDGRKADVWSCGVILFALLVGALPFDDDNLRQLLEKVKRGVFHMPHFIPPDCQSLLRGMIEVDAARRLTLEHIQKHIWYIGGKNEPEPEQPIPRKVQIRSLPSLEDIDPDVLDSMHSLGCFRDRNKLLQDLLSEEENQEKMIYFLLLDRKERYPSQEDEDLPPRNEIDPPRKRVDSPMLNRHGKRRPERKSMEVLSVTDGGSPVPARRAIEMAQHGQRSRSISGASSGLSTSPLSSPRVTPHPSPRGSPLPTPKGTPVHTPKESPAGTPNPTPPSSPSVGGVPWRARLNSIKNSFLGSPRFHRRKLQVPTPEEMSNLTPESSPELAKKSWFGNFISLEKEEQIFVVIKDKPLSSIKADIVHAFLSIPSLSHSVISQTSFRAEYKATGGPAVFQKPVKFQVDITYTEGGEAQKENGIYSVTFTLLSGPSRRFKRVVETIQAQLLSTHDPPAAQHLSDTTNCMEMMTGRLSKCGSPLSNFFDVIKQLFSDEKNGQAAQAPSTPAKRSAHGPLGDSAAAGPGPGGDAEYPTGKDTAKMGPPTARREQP

[18] = target: GRK6 (human) (UniProt P43250); conditions: compound 0.5 µM; ATP 10 µM
[19] = target: MAPK12 (human) (UniProt P53778); conditions: compound 0.5 µM; ATP 10 µM
Sequence of MAPK12 (human) (P53778 whole entry, looked up): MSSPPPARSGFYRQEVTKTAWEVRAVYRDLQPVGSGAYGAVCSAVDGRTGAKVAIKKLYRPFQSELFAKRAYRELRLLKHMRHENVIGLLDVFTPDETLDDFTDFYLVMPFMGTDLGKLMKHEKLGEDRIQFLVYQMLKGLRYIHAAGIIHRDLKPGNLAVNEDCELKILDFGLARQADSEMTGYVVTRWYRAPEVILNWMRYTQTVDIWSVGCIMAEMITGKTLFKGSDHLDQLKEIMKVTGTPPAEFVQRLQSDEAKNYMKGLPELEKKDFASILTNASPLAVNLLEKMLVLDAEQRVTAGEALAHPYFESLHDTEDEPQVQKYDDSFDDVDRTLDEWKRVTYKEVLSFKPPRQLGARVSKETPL

[20] = target: ALK (human) (UniProt Q9UM73); conditions: compound 0.5 µM; ATP 10 µM
[21] = target: MAPK14 (human) (UniProt Q16539); conditions: compound 0.5 µM; ATP 10 µM
[22] = target: HCK (human) (UniProt P08631); conditions: compound 0.5 µM; ATP 10 µM
[23] = target: MARK2 (human) (UniProt Q7KZI7); conditions: compound 0.5 µM; ATP 10 µM
[24] = target: RAF1 (human) (UniProt P04049); conditions: compound 0.5 µM; ATP 10 µM
[25] = target: AURKA (human) (UniProt O14965); conditions: compound 0.5 µM; ATP 10 µM
[26] = target: CDK3 CCNE1 (human) (UniProt Q00526+P24864); conditions: compound 0.5 µM
[27] = target: SGK2 (human) (UniProt Q9HBY8); conditions: compound 0.5 µM; ATP 10 µM
[28] = target: FGFR3 (human) (UniProt P22607); conditions: compound 0.5 µM; ATP 10 µM
Sequence of FGFR3 (human) (P22607 whole entry, looked up): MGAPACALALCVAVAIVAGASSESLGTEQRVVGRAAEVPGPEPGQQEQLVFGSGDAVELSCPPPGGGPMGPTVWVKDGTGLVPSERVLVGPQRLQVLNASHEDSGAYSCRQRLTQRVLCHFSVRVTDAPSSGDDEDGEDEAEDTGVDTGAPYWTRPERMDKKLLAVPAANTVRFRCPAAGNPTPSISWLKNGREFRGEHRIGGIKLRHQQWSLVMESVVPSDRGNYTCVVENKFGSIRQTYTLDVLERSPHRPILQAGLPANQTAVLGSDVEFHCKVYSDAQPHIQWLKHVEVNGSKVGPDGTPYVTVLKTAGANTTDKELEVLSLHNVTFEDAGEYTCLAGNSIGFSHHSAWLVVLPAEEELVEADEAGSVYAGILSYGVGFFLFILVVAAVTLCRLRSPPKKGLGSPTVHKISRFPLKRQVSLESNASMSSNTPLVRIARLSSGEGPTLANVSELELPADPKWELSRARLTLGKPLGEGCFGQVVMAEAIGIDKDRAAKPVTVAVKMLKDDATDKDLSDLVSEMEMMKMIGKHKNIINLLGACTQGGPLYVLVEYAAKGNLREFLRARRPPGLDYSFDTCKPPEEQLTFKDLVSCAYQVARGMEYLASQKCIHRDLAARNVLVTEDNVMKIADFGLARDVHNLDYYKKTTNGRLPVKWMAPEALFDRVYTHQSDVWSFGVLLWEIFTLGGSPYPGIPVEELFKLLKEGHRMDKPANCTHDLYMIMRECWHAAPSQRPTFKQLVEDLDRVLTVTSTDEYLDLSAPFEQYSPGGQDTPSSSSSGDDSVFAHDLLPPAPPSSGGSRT

[29] = target: PRKCE (human) (UniProt Q02156); conditions: compound 0.5 µM; ATP 10 µM
[30] = target: EPHB3 (human) (UniProt P54753); conditions: compound 0.5 µM; ATP 10 µM
[31] = target: KDR (human) (UniProt P35968); conditions: compound 0.5 µM; ATP 10 µM
[32] = target: NEK7 (human) (UniProt Q8TDX7); conditions: compound 0.5 µM; ATP 10 µM
Sequence of NEK7 (human) (Q8TDX7 whole entry, looked up): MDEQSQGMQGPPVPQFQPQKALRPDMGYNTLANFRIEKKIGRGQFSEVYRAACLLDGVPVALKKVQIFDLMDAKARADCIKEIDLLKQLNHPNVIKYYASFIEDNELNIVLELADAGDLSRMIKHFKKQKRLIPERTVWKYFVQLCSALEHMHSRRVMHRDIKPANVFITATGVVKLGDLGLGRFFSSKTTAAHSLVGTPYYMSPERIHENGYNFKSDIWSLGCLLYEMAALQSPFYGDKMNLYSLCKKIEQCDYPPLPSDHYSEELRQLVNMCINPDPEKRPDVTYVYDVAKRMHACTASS

[33] = target: SLK (human) (UniProt Q9H2G2); conditions: compound 0.5 µM; ATP 10 µM
[34] = target: MAP3K11 (human) (UniProt Q16584); conditions: compound 0.5 µM; ATP 10 µM
[35] = target: PAK2 (human) (UniProt Q13177); conditions: compound 0.5 µM; ATP 10 µM
[36] = target: NUAK1 (human) (UniProt O60285); conditions: compound 0.5 µM; ATP 10 µM
[37] = target: SRPK3 (human) (UniProt Q9UPE1); conditions: compound 0.5 µM; ATP 10 µM
[38] = target: NTRK1 (human) (UniProt P04629); conditions: compound 0.5 µM; ATP 10 µM
[39] = target: CDK5 CDK5R1 p25 (human) (UniProt Q00535+Q15078); conditions: compound 0.5 µM
[40] = target: PASK (human) (UniProt Q96RG2); conditions: compound 0.5 µM; ATP 10 µM
[41] = target: DYRK1A (human) (UniProt Q13627); conditions: compound 0.5 µM; ATP 10 µM
[42] = target: STK39 (human) (UniProt Q9UEW8); conditions: compound 0.5 µM

Q: Which results are given for `N#Cc1c(NC(=O)c2cccc3ccccc23)sc2c1CCCC2`?
A: residual activity [1]: 88.9%; residual activity [2]: 85.5%; residual activity [3]: 80.4%; residual activity [4]: 84.4%; residual activity [5]: 95.9%; residual activity [6]: 101%; residual activity [7]: 101%; residual activity [8]: 109%; residual activity [9]: 103%; residual activity [10]: 110%; residual activity [11]: 98.5%; residual activity [12]: 103%; residual activity [13]: 108%; residual activity [14]: 109%; residual activity [15]: 97.7%; residual activity [16]: 101% and 94.6%; residual activity [17]: 100%; residual activity [18]: 108%; residual activity [19]: 95.6%; residual activity [20]: 96.4%; residual activity [21]: 98.1%; residual activity [22]: 96.5%; residual activity [23]: 105%; residual activity [24]: 92.9%; residual activity [25]: 101%; residual activity ([26]; ATP 10 µM): 99.2%; residual activity [27]: 101%; residual activity [28]: 101%; residual activity [29]: 99.1%; residual activity [30]: 95.9%; residual activity [31]: 100%; residual activity [32]: 89.2%; residual activity [33]: 99.2%; residual activity [34]: 103%; residual activity [35]: 103%; residual activity [36]: 97.3%; residual activity [37]: 95.7%; residual activity [38]: 105%; residual activity ([39]; ATP 10 µM): 100%; residual activity [40]: 98.3%; residual activity [41]: 96.7%; residual activity ([42]; ATP 10 µM): 94.6%

Q: Which results are given for `O=c1[nH]c2ccccc2n1C1CCN(Cc2ccc(-c3nc4cc5[nH]cnc5cc4nc3-c3ccccc3)cc2)CC1`?
A: residual activity [1]: 93.9%; residual activity [2]: 104%; residual activity [3]: 112%; residual activity [4]: 92.2%; residual activity [5]: 104%; residual activity [6]: 104%; residual activity [7]: 114%; residual activity [8]: 115%; residual activity [9]: 98.2%; residual activity [10]: 94.2%; residual activity [11]: 99.5%; residual activity [12]: 105%; residual activity [13]: 94.6%; residual activity [14]: 98%; residual activity [15]: 101%; residual activity [16]: 101% and 103%; residual activity [17]: 106%; residual activity [18]: 88%; residual activity [19]: 93.1%; residual activity [20]: 106%; residual activity [21]: 99.7%; residual activity [22]: 99.6%; residual activity [23]: 92.2%; residual activity [24]: 94.7%; residual activity [25]: 99%; residual activity [26]: 97.5%; residual activity [27]: 112%; residual activity [28]: 101%; residual activity [29]: 109%; residual activity [30]: 104%; residual activity [31]: 90.9%; residual activity [32]: 99.6%; residual activity [33]: 97.7%; residual activity [34]: 94.6%; residual activity [35]: 99.2%; residual activity [36]: 103%; residual activity [37]: 107%; residual activity [38]: 99.4%; residual activity [39]: 96.9%; residual activity [40]: 110%; residual activity [41]: 101%; residual activity [42]: 98.2%
